In patent US4570006A, “Amidine compound, process for producing same and anti-complement agent comprising same” (Torii & Co. Ltd., priority 1981, dated 1986):

What was measured:
Kallikrein = test: Anti-kallikrein activity (inhibition of TAME hydrolysis); type: biochemical; details: read-out: ID50, kallikrein
Protocol: (§1) The anti-trypsin, anti-plasmin, anti-kallikrein and anti-thrombin activities were determined according to the method of Muramatsu et al. [M. Muramatsu, T. Onishi, S. Makino, Y. Hayashi and S. Fujii, J. of Biochem., 58, 214 (1965)]. The data summarized in Table 1 are expressed in terms of molar concentration (ID50) of the test compound which inhibits 50% of the activity of each enzyme to hydrolyze TAME (tosylarginine methyl ester). The compound No. corresponds to the compound number shown in Examples.

Clr = target: T1, Clr (Homo sapiens, UniProt P00736); test: Anti-Cl esterase activity, Clr (AAME hydrolysis); type: biochemical; details: hydrolysis of AAME; read-out: Anti-Cl activity, Clr (ID50)
T1 sequence (P00736 464-705 limits assumed): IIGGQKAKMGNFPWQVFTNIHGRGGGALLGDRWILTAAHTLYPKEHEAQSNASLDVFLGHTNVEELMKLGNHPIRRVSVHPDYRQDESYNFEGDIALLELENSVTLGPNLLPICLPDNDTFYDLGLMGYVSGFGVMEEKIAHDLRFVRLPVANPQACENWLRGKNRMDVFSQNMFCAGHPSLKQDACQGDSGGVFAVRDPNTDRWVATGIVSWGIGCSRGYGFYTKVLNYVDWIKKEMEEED
T1 sequence (P00736 18-463 limits assumed): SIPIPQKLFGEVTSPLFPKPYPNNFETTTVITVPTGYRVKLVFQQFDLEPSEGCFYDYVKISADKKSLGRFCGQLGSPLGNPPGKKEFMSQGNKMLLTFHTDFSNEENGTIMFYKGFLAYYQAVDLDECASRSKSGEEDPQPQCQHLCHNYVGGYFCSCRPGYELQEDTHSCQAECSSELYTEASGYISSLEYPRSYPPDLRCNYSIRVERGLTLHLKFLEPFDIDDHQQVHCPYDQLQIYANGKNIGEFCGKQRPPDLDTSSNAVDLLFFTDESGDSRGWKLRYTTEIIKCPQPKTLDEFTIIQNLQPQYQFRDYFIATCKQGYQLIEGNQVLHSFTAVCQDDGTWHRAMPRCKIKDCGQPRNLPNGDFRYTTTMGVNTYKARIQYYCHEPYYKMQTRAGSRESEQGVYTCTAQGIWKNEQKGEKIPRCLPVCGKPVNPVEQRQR
Protocol: The anti-Cl esterase ([…]) activity was determined according to the method of Okamura et al. [K. Okamura, M. Muramatsu and B. Fujii, Biochem. Biophys.

Plasmin = Plasmin (Homo sapiens, UniProt P00747); test: Anti-plasmin activity (inhibition of TAME hydrolysis); type: biochemical; details: read-out: ID50, plasmin
Chain of Plasmin (P00747 581-810 limits assumed, species assumed): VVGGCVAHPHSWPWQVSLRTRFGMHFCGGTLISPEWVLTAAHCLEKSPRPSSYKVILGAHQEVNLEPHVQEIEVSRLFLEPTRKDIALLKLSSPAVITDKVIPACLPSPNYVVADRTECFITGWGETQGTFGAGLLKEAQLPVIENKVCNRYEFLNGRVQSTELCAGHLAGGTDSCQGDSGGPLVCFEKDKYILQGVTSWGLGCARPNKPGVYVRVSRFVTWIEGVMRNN
Chain of Plasmin (P00747 97-580 limits assumed, species assumed): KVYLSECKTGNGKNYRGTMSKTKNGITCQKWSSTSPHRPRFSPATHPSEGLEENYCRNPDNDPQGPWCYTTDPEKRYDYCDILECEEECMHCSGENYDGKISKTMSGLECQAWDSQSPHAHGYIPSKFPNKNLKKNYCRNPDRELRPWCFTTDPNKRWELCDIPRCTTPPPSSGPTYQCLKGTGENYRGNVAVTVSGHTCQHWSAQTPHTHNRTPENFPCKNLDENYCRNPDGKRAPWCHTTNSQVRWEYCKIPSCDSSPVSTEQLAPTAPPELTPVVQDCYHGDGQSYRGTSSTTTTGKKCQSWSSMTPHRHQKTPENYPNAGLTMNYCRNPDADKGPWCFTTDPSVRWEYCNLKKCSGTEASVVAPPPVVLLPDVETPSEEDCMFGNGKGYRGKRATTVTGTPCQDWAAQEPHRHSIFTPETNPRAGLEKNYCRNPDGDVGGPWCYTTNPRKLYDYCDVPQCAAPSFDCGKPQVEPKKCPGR
Protocol: as §1

Trypsin = target: T2, Trypsin (Bos taurus, UniProt P00760); test: Anti-trypsin activity (inhibition of TAME hydrolysis); type: biochemical; details: read-out: ID50, trypsin
T2 sequence (P00760 24-246): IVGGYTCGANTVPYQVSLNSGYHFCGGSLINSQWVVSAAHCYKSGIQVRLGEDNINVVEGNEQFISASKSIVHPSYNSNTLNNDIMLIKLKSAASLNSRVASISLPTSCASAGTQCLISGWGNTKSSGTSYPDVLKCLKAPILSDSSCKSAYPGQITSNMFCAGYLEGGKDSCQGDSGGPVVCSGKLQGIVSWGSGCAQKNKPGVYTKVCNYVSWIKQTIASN
Protocol: as §1

complement = test: Inhibition of complement mediated hemolysis; type: cell-based
Protocol: The complement mediated hemolysis is widely used as a means to determine the titration of complement. The principle of this method is based on the fact that hemolysis if caused by the activation of complement, when the latter is added to a complex (immune complex) of erythrocytes and the antibody thereof. The degree of hemolysis varies in proportion to the amount of complement added. Therefore, when a known amount of complement admixed with a Cl esterase inhibitor is used, the hemolysis must be suppressed in proportion to the inhibitory activity.
The anti-Cl esterase (Clr, Cls) activity was determined according to the method of Okamura et al. [K. Okamura, M. Muramatsu and B. Fujii, Biochem. Biophys. […] The figures in Table 2 have the following meanings: […]

Thrombin = Thrombin (Homo sapiens, UniProt P00734); test: biochemical; details: TAME hydrolysis; read-out: ID50, thrombin
Cls = target: T3, Cls (Homo sapiens, UniProt P09871); test: Anti-Cl esterase activity, Cls (ATEE hydrolysis); type: biochemical; details: hydrolysis of ATEE; read-out: Anti-Cl activity, Cls (50% inhibition)
T3 sequence (P09871 438-688 limits assumed): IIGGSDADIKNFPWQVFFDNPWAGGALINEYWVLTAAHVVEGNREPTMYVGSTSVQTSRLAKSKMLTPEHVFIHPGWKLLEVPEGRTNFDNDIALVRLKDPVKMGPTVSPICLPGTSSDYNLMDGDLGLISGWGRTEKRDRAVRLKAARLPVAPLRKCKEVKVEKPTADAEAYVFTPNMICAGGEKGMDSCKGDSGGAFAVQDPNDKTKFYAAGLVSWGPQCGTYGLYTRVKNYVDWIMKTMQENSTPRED
T3 sequence (P09871 16-437 limits assumed): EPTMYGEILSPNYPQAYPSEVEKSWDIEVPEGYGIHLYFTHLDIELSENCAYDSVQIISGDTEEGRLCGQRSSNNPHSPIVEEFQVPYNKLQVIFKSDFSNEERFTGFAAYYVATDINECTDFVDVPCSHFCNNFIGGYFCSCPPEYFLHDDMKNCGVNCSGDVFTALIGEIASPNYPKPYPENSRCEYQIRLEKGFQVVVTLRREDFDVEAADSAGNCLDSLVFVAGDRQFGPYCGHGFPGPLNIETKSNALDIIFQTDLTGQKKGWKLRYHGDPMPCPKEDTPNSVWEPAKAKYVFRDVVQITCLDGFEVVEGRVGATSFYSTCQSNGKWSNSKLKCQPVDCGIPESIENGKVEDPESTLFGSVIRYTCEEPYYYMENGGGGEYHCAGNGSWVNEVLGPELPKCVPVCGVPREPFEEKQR
Protocol: The anti-Cl esterase (Clr, Cls) activity was determined according to the method of Okamura et al. [K. Okamura, M. Muramatsu and B. Fujii, Biochem. Biophys. […] The figures in Table 2 have the following meanings:
Cls: Molar concentration of the test compound which inhibits 50% of the ability of Cls to hydrolyse ATEE (acetyltyrosin ethyl ester).

IC50 (Kallikrein)	IC50 (Plasmin)	IC50 (Trypsin)	IC50 (Thrombin)	Compound	IC50 (Clr)	Inhibition of complement mediated hemolysis (%) (complement; compound at 1 × 10^-4)	Inhibition of complement mediated hemolysis (%) (complement; compound at 1 × 10^-5)	Inhibition of complement mediated hemolysis (%) (complement; compound at 1 × 10^-6)	Inhibition of complement mediated hemolysis (%) (complement; compound at 1 × 10^-7)	IC50 (Cls)
> 10 µM	4 µM	> 10 µM	0.5 µM	N=C(N)c1ccc(OC(=O)C2CC2)c([N+](=O)[O-])c1 [Compound 7, 4-amidino-2-nitrophenyl cyclopropanecarboxylate]	> 10 µM	99.0%	78.2%	10.2%	1.7%	–
> 10 µM	> 10 µM	> 10 µM	2 µM	N=C(N)c1ccc(OC(=O)CCNC(=O)OCc2ccccc2)c(C(=O)c2ccccc2)c1 [Compound 10, 4-amidino-2-benzoylphenyl 3-benzyloxycarbonylaminopropionate]	> 10 µM	95.9%	80.3%	17.0%	2.3%	–
–	–	–	–	Cc1cc(C(=O)Oc2ccc(C(=N)N)cc2C(=O)c2ccccc2)ccc1[N+](=O)[O-] [Compound 81]	> 10 µM	98.2%	71.6%	4.2%	0%	> 10 µM
–	–	–	–	COc1cc(C(=N)N)ccc1OC(=O)c1ccc(NC(=N)N)cc1Cl [Compound 76]	> 10 µM	34.8%	4.8%	0%	0%	> 10 µM
–	–	–	–	Cc1cccc(Nc2ccccc2C(=O)Oc2ccc(C(=N)N)cc2C(=O)c2ccccc2)c1C [Compound 87]	> 10 µM	0%	0%	0%	0%	5 µM
> 10 µM	0.6 µM	0.3 µM	–	COC(=O)c1cc(C(=N)N)ccc1OC(=O)c1ccccc1 [Compound 25, 4-amidino-2-methoxycarbonylphenyl benzoate]	4 µM	100.0%	93.1%	38.6%	11.6%	0.2 µM
–	–	–	–	CCC(=Cc1ccc(NC(=N)N)cc1)C(=O)Oc1ccc(C(=N)N)cc1C(=O)c1ccccc1 [Compound 74]	> 10 µM	55.4%	5.7%	3.6%	0%	3 µM
–	–	–	–	N=C(N)Nc1ccc(C(=O)Oc2ccc(C(=N)N)cc2C(=O)c2ccccc2)c(Cl)c1 [Compound 77]	> 10 µM	97.3%	48.9%	1.8%	0%	0.8 µM
–	–	–	–	N=C(N)c1ccc(OC(=O)c2ccc(F)cc2)c([N+](=O)[O-])c1 [Compound 85]	0.6 µM	98.6%	97.9%	67.1%	7.0%	0.5 µM
–	–	–	–	COc1cc(C(=N)N)ccc1OC(=O)c1ccc([N+](=O)[O-])c(C)c1 [Compound 80]	> 10 µM	66.5%	6.9%	0%	0%	> 10 µM
–	–	–	–	N#Cc1ccc(C(=O)Oc2ccc(C(=N)N)cc2C(=O)c2ccccc2)cc1 [Compound 83]	9 µM	100%	90.2%	12.9%	–	4 µM
–	–	–	–	COc1cc(C(=N)N)ccc1OC(=O)CCCc1ccc([N+](=O)[O-])cc1 [Compound 82]	> 10 µM	29.8%	0%	0%	0%	> 10 µM
–	–	–	–	COC(=O)c1cc(C(=N)N)ccc1OC(=O)c1ccc(NC(=N)N)cc1 [Compound 72]	1 µM	100%	87.8%	10.8%	0%	0.2 µM
3 µM	2 µM	2 µM	–	N=C(N)c1ccc(OC(=O)C2CC2)c(C(=O)c2ccccc2)c1 [Compound 8]	> 10 µM	–	90.5%	22.0%	0%	–
> 10 µM	> 10 µM	> 10 µM	> 10 µM	CC(=O)Oc1ccc(C(=N)N)cc1[N+](=O)[O-] [Compound 2, 4-amidino-2-nitrophenyl acetate]	–	97.3%	30.1%	3.9%	2.1%	–

Compound	IC50 (Kallikrein)	IC50 (Plasmin)	IC50 (Trypsin)	IC50 (Thrombin)	IC50 (Clr)	Inhibition of complement mediated hemolysis (%) (complement; compound at 1 × 10^-4)	Inhibition of complement mediated hemolysis (%) (complement; compound at 1 × 10^-5)	Inhibition of complement mediated hemolysis (%) (complement; compound at 1 × 10^-6)	Inhibition of complement mediated hemolysis (%) (complement; compound at 1 × 10^-7)	IC50 (Cls)
CC(=O)Oc1ccc(C(=N)N)cc1C(=O)c1ccccc1 [Compound 1, 4-amidino-2-benzoylphenyl acetate]	> 10 µM	> 10 µM	> 10 µM	> 10 µM	> 10 µM	95.9%	37.3%	16.0%	0%	–
